Reference: patent US20200397796A1, “METHODS OF TREATMENT OF CANCER COMPRISING CHK1 INHIBITORS” (SIERRA ONCOLOGY, INC., priority 2018, published 2020)
Where “and” joins values, the source holds several entries; their conditions need not be identical. Equal entries are not always repeated. Where two headings read alike, the source gives them in different places.

Experiment: SRA737 plasma and tumor concentrations in HT29 xenograft model
Type: in vivo, mouse
Parameters: Tumor (6 h) concentration / Tumor (24 h) concentration: unit not given here
Conditions: for concentration at 6 h / concentration at 24 h: plasma
Description: For each dose, columns from left to right are concentrations for plasma at 6 hours, plasma at 24 hours, tumor at 6 hours, and tumor at 24 hours, respectively.
The effect of SRA737 on Gemcitabine induced CHK1 S296 autophosphorylation was assessed as described in Walton et al. (Oncotarget. 2016 Jan. 19; 7(3): 2329-2342), herein incorporated by reference for all it teaches. Briefly, mice bearing HT29 tumor xenografts were administered (i) vehicle control or (ii) gemcitabine (100 mg/kg in saline, IV) or (iii) a combination of SRA737 ([…]) and gemcitabine (100 mg/kg) with SRA737 administered 24 hours following gemcitabine administration (n=3 per time point per treatment). […] Exposure in the tumor was greater than 10-fold higher than in plasma. The circulating plasma concentration at this 24-hour timepoint corresponded to a free drug concentration of approximately 6 nM (2 ng/mL) based on plasma protein binding in mice of 94%.

N#Cc1cnc(Nc2cc(NCC3CNCCO3)c(C(F)(F)F)cn2)cn1 (stereo not drawn) [SRA737, 5-[[4-[[morpholin-2-yl]methylamino]-5-(trifluoromethyl)-2-pyridyl]amino]pyrazine-2-carbonitrile]
Tumor (6 h) concentration (3.125 mg/kg): 3183.276
Tumor (24 h) concentration (3.125 mg/kg): 645.7623
Tumor (6 h) concentration (6.25 mg/kg): 4011.501
Tumor (24 h) concentration (6.25 mg/kg): 965.7797
Tumor (6 h) concentration (12.5 mg/kg): 19009.57
Tumor (24 h) concentration (12.5 mg/kg): 3974.933
Tumor (6 h) concentration (25 mg/kg): 37516
Tumor (24 h) concentration (25 mg/kg): 16289.53
Tumor (6 h) concentration (50 mg/kg): 76331.2
Tumor (24 h) concentration (50 mg/kg): 27483.73
Tumor (6 h) concentration (100 mg/kg): 131506.7
Tumor (24 h) concentration (100 mg/kg): 101764.1
concentration at 6 h (mouse, oral, 3.125 mg/kg): 194 nM
concentration at 24 h (mouse, oral, 3.125 mg/kg, read-out: Plasma (24 h) concentration): 0 nM
concentration at 6 h (mouse, oral, 6.25 mg/kg): 323 nM
concentration at 24 h (mouse, oral, 6.25 mg/kg, read-out: Plasma (24 h) concentration): 13.1 nM
concentration at 24 h (mouse, oral, 12.5 mg/kg, 24-hour timepoint, based on plasma protein binding in mice of 94%, read-out: free drug concentration in plasma): ~6 nM and ~2 ng/mL
concentration at 24 h (mouse, oral, 12.5 mg/kg, at 24 hours, approximate, read-out: minimum (total) plasma concentration corresponding to inhibition of pS296 Chk1): ~100 nM
concentration at 24 h (mouse, oral, 12.5 mg/kg, at 24 hours, read-out: minimum (total) plasma concentration corresponding to inhibition of pS296 Chk1): ~40 ng/mL
concentration at 24 h (mouse, oral, 12.5 mg/kg, read-out: Plasma (24 h) concentration): 78 ± 27 nM
Kp (mouse, tumor, oral, HT29 xenograft mice, read-out: exposure in the tumor relative to plasma): > 10
